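Compound exposure: 48 hours, 5 concentrations, 96-well plates. At the GI50, growth is halved. TGI is the concentration that stops growth completely.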
Key:
Test in all cases: inhibition of tumour cell growth, NCI panel, 48 h
UO-31 renal = tested on: UO-31 renal
OVCAR-3 ovarian = tested on: OVCAR-3 ovarian
COLO 205 colon = tested on: COLO 205 colon
KM12 colon = tested on: KM12 colon
CAKI-1 renal = tested on: CAKI-1 renal
SR leukemia = tested on: SR leukemia
HOP-62 NSCLC = tested on: HOP-62 NSCLC
OVCAR-4 ovarian = tested on: OVCAR-4 ovarian
CCRF-CEM leukemia = tested on: CCRF-CEM leukemia
MOLT-4 leukemia = tested on: MOLT-4 leukemia

Row | Compound | GI50 (UO-31 renal) [µM] | TGI (UO-31 renal) [µM] | GI50 (OVCAR-3 ovarian) [µM] | TGI (OVCAR-3 ovarian) [µM] | GI50 (COLO 205 colon) [µM] | TGI (COLO 205 colon) [µM] | GI50 (KM12 colon) [µM] | TGI (KM12 colon) [µM] | GI50 (CAKI-1 renal) [µM] | TGI (CAKI-1 renal) [µM] | GI50 (SR leukemia) [µM] | TGI (SR leukemia) [µM] | GI50 (HOP-62 NSCLC) [µM] | TGI (HOP-62 NSCLC) [µM] | GI50 (OVCAR-4 ovarian) [µM] | TGI (OVCAR-4 ovarian) [µM] | GI50 (CCRF-CEM leukemia) [µM] | TGI (CCRF-CEM leukemia) [µM] | GI50 (MOLT-4 leukemia) [µM] | TGI (MOLT-4 leukemia) [µM]
1 | CN(C)CCCN=c1cc2c(=O)n(CCCN(C)C)c(=O)c3c(NCCCN(C)C)cc4c(O)n(CCCN(C)C)c(=O)c1c4c3-2 | 2.92 | 12.9 | 2.26 | 7.88 | 1.03 | 2.62 | 2.36 | 16.4 | 6.21 | 29.4 | 8.39 | 56 | 0.657 | 5.19 | 1.83 | 7.9 | 5.84 | 54.8 | 7.11 | 98.8
2 | COC1OC(CBr)C(OC(c2ccccc2)(c2ccccc2)c2ccccc2)C(OC(c2ccccc2)(c2ccccc2)c2ccccc2)C1OC(c1ccccc1)(c1ccccc1)c1ccccc1 (stereo not given) |  | 36.8 |  | 28.6 |  | > 100 |  | > 100 |  | > 100 |  | > 100 |  | > 100 |  | 60.8 |  | > 100 |  | > 100
3 | O=C(O)CCSC(=O)Nc1cccc([N+](=O)[O-])c1 |  | > 100 |  | > 100 |  | > 100 |  | > 100 |  | > 100 |  | > 100 |  | > 100 |  | > 100 |  | > 100 |  | > 100
4 | Cc1ccc(NC(=O)CC/C(CC(=O)c2ccc(Cl)cc2)=N\NC(=O)C(=O)NN)cc1C |  | > 100 |  | > 100 |  | > 100 |  | > 100 |  | > 100 |  | > 100 |  | > 100 |  | > 100 |  | > 100 |  | > 100
5 | N#C/C(=C/C=C/c1ccccc1)S(=O)c1ccccc1 (stereo not given) | 0.4 | 3.08 | 0.307 | 1.13 | 0.482 | 2.07 | 0.594 | 2.17 | 0.418 | 1.55 | 0.281 | 4.51 | 1.29 | 5.36 | 0.329 | 2.27 | 0.341 | 1.59 | 0.338 | 3.64
6 | CN(C1=NS(=O)(=O)N=C(N(C)c2ccccc2)O1)c1ccccc1 |  | 37.6 |  | 51.6 |  | 46 |  | 34.4 |  | 45.4 |  | 44.7 |  | 41.9 |  | 51.5 |  | > 100 |  | > 100
7 | N=C1C(c2nc3ccccc3s2)=C(O)CN1c1ccc(Cl)cc1Cl | 1.63 | 3.62 | 18.7 | > 100 | 36.6 | > 100 | 11.7 | 65.7 | 3.27 | 20.3 | 1.49 | 34.6 | 13.9 | 38 | 18.3 | 70.2 | 19.2 | > 100 | 22.7 | > 100
8 | O=C1C(Cl)=C(Nc2cccc(O)c2)C(=O)N1c1cccc(Cl)c1 | 75.8 | > 100 | 22.3 | 64.1 | 56.5 | > 100 | 68.2 | > 100 | 49.9 | > 100 | 27 | > 100 | 52.7 | > 100 | 50.6 | > 100 | 10.7 | 31.8 | 23 | 71.4
9 | NNC(=O)CCC(=O)Nc1ccc(Cl)cc1Cl |  | > 100 |  | > 100 |  | > 100 |  | > 100 |  | > 100 |  | > 100 |  | > 100 |  | > 100 |  | > 100 |  | > 100
10 | O=S1c2ccccc2N=C(c2ccc(Cl)cc2)CC1c1cccs1 (stereo not given) |  | 51.6 |  | 17.3 |  | 41 |  | 33.8 |  | > 100 |  | 43.1 |  | > 100 |  | 57.2 |  | 86.5 |  | 98.7
11 | CCC(c1ccc(OC)cc1)C(CC)c1ccc(O)c(CN2CCCC2)c1 (stereo not given) | 3.91 | 17 | 6.15 | 19.5 | 1.81 | 3.71 | 3.72 | 15.3 | 6.1 | 20 | 1.49 | 4.62 | 3.46 | 13.4 | 2.54 | 15.2 | 3.56 | 13.5 | 2.54 | 6.77
12 | O=C1NC(=O)C(=O)C(c2nc3ccccc3s2)C1=O |  | > 100 |  | > 100 |  | > 100 |  | > 100 |  | > 100 |  | > 100 |  | > 100 |  | > 100 |  | > 100 |  | > 100
13 | CNC(=O)c1cncc(/C=C/c2c(C)cccc2C)c1 | 9.29 | > 25 | > 25 | > 25 | > 22.6 | > 25 | > 25 | > 25 | 10.2 | > 25 | > 25 | > 25 | > 25 | > 25 | > 25 | > 25 | > 25 | > 25 | > 25 | > 25

Source: PubChem BioAssay (NCI)
